Key:
Type in all cases: cell-based
[1] = system: ovarian cancer cell lines (A2780, OVCAR10, PEO1, PEO4); assay: Viability assay (PrestoBlue), ovarian cancer cells
Experimental: Cell viability was determined by Prestoblue and presented as percent of vehicle. Three independent biological replicates were used to calculate the average. Two-sided t-test, **P<0.01 for corresponding comparisons.
Therefore, ovarian cancer cells were used to assess the effectiveness of targeting Integrator in cancers without activating mutations in the MAPK pathway. Phendione was compared with the conventional chemotherapeutic drug, cisplatin, a DNA crosslinking agent, which is frequently used in the treatment of the ovarian cancer. The effectiveness of INTS11 depletion in reducing the proliferation of PEO4 ovarian cancer cells was first measured (FIGS. 11, 12A, and 12B). Next, four ovarian cancer cell lines were treated with phendione or cisplatin.
(§1) The cells were plated 5000 per well in 96-well black plates with a clear bottom and maintained under normal conditions over night before the drug treatment. The cell viability was measured 4 days after treatment using PrestoBlue (Invitrogen cat No A13261). GraphPad Prism software was used to generate dose response curves and calculate IC50 values. Each experiment was repeated at least three times.

[2] = system: lung cancer cell lines (NCI-H1975, NCI-H2444, NCI-H1650) and melanoma cell lines (SK-MEL28 and A375); assay: Viability assay (PrestoBlue), MAPK-driven cancer cell lines; conditions: all MAPK-driven cancer cell lines, 96 hours treatment
Experimental: Cell viability was determined by Prestoblue and presented as percent of vehicle. Three independent biological replicates were used to calculate the average. […] Two-sided t-test, **P<0.01 for corresponding comparisons.
The NCI-H1650 lung cancer cell line containing heterozygous deletion in EGFR (delE746-A750) was treated with two different siRNAs to INTS11, or control non-targeting siRNAs, and cellular proliferation was measured using 5-ethynyl-2′-deoxyuridine (EdU), a sensitive and quantitative measure of cellular growth. […] SK-MEL28 also contains a homozygous EGFR mutation (P753S).
as §1

[3] = system: IMR90 human fibroblasts and BEAS-2B normal lung epithelial cells; assay: Cell viability of normal cells; conditions: IMR90 and BEAS-2B
Experimental: as §1

Q: Which results are given for `O=C1C(=O)c2cccnc2-c2ncccc21` [phendione, 1,10-phenanthroline-5,6-dione]?
A: responsiveness of cisplatin-resistant ovarian cancer cells ([1]; A2780 and OVCAR10, known resistance to cisplatin): sensitive to phendione; sensitivity of cellular viability ([1]; all four ovarian cancer lines, 96 hours treatment): exquisite sensitivity; IC50 of viability compared with MAPK pathway inhibitors [2]: IC50s less than or equal to that of MAPK pathway inhibitors; sensitivity of normal cells (cell viability) [3]: sensitive to phendione

From patent publication US20190358220A1, “INTEGRATOR INHIBITORS AND METHODS FOR THEIR USE” (UNIVERSITY OF MIAMI, priority 2017, published 2019)
